Results from ChEMBL document CHEMBL5331073, “Discovery of novel 7,7-dimethyl-6,7-dihydro-5H-pyrrolo[3,4-d]pyrimidines as ATR inhibitors based on structure-based drug design” (Eur J Med Chem, 2023).

What was measured:
[1] = biological target: Serine/threonine-protein kinase ATR (Homo sapiens, UniProt Q13535); test: Inhibition of ATR (unknown origin) using peptide as substrate preincubated for 10 mins followed by substrate addition by microplate reader analysis
[2] = system: LoVo; test: Antiproliferative activity against ATM-deficient human LoVo cells assessed as reduction in cell proliferation incubated for 3 days by MTT assay; type: functional, cell-based; details: 72 h
[3] = system: HT-29; test: Antiproliferative activity against ATM-proficient human HT-29 cells assessed as reduction in cell proliferation incubated for 3 days by MTT assay; type: functional, cell-based; details: HT-29, 72 h
[4] = in vitro; details: human, liver microsomes
[5] = in vitro; details: rat, liver microsomes
[6] = in vitro; details: human, liver microsomes; remark: listed apart in the source
[7] = in vitro; details: rat, liver microsomes; remark: listed apart in the source
[8] = in vitro; details: human, liver microsomes; remark: listed apart in the source
[9] = in vitro; details: rat, liver microsomes; remark: listed apart in the source
[10] = system: LoVo; test: Antiproliferative activity against ATM-deficient human LoVo cells assessed as reduction in cell proliferation at 0.2 uM incubated for 3 days by MTT assay; type: functional; design: scale not given: the % may be the effect or the level left; details: time 3 day

Sequence of Serine/threonine-protein kinase ATR (Q13535 whole entry): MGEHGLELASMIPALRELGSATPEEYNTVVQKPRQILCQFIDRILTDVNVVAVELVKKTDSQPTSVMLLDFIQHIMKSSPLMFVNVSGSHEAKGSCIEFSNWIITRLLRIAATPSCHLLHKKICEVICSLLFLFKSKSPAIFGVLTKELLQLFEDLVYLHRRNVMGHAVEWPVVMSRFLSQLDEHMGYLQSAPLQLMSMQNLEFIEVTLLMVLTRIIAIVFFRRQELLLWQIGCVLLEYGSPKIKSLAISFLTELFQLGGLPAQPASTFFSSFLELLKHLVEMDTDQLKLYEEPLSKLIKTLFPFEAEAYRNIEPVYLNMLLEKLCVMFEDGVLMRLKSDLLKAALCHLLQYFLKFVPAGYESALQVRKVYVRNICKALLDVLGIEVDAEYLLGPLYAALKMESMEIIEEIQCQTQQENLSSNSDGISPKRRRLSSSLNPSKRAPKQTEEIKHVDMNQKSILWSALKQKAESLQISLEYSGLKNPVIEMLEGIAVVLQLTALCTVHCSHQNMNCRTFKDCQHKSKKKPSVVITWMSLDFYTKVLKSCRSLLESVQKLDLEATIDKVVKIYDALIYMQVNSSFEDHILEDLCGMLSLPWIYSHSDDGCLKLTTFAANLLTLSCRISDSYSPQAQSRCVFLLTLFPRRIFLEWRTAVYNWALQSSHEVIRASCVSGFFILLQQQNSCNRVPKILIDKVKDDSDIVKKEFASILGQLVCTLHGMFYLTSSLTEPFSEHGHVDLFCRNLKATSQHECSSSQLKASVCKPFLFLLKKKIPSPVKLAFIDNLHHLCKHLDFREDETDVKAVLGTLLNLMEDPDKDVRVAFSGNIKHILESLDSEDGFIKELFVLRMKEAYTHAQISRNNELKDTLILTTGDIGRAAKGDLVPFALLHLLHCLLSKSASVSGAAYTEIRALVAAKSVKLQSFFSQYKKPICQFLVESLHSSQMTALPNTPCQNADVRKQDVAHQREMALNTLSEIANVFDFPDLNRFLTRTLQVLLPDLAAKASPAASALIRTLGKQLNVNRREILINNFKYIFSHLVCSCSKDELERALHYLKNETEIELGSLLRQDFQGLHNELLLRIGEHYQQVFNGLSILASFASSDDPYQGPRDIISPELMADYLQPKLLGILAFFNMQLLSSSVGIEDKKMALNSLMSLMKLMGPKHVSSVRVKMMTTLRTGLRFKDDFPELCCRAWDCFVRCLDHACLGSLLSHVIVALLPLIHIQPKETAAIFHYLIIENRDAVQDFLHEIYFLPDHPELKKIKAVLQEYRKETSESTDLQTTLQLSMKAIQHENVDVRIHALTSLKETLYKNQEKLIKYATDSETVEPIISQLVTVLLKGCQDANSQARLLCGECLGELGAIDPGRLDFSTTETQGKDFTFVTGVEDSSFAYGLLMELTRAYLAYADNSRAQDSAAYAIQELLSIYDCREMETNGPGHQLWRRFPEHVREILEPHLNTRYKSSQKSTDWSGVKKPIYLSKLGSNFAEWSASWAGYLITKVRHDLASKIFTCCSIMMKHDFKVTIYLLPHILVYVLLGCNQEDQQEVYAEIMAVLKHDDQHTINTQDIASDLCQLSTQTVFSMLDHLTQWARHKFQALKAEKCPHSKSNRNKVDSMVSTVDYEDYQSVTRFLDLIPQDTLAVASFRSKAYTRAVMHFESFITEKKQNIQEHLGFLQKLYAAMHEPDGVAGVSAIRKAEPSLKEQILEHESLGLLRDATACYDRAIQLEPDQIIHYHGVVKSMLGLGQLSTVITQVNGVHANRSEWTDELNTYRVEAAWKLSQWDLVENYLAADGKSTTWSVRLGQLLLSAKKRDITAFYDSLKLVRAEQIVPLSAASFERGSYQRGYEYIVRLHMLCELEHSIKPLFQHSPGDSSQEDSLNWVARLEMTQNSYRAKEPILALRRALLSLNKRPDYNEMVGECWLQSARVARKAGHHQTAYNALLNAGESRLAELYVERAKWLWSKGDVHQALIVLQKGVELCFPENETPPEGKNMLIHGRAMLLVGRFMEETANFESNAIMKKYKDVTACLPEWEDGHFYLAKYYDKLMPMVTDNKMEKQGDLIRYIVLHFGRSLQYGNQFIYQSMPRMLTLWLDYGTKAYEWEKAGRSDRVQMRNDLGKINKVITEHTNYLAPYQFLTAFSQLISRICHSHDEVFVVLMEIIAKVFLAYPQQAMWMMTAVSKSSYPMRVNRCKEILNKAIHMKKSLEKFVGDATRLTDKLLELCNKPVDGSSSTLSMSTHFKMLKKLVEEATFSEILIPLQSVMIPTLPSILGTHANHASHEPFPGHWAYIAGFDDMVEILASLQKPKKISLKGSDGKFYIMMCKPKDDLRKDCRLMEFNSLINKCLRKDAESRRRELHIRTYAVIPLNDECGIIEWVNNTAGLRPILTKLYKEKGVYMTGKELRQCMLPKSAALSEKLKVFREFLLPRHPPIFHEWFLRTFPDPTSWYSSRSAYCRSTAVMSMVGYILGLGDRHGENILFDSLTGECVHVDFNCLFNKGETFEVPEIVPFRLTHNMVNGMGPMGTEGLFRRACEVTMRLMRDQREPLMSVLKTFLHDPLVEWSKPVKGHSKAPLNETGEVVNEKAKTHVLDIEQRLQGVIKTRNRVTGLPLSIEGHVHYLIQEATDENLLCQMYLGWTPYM

Compound	IC50 [1]	also measured
C[C@@H]1COCCN1c1nc(-c2cccc3[nH]ccc23)nc2c1CCN(C(=O)C(C)(C)C)C2(C)C	17 nM	
C[C@@H]1COCCN1c1nc(-c2cccc3[nH]ccc23)nc2c1CCN(C(=O)c1cccc(F)c1)C2(C)C	14 nM	IC50 [2]: 964 nM; IC50 [3]: 2580 nM; half-life at 1 h, 1 µM [4]: 7.76 min; half-life at 1 h, 1 µM [5]: 23.4 min; microsomal CLint at 1 h, 1 µM [6]: 179 µL/min/mg; microsomal CLint at 1 h, 1 µM [7]: 59.6 µL/min/mg; CLint scaled at 1 h, 1 µM [8]: 169 mL/min/kg; CLint scaled at 1 h, 1 µM [9]: 107 mL/min/kg
C[C@@H]1COCCN1c1nc(-c2cccc3[nH]ccc23)nc2c1CN(C(=O)C1CC1)C2(C)C	8 nM	Activity [10]: <45%
C[C@@H]1COCCN1c1nc(-c2cccc3[nH]ccc23)nc2c1CCN(C(=O)c1ccc(F)cc1)C2(C)C	18 nM	
C[C@@H]1COCCN1c1nc(-c2cccc3[nH]ccc23)nc2c1CCN(C(=O)c1ccccc1)C2(C)C	9 nM	IC50 [2]: 574 nM; IC50 [3]: 1640 nM; half-life at 1 h, 1 µM [4]: 24.5 min; half-life at 1 h, 1 µM [5]: 38.2 min; microsomal CLint at 1 h, 1 µM [6]: 56.8 µL/min/mg; microsomal CLint at 1 h, 1 µM [7]: 36.4 µL/min/mg; CLint scaled at 1 h, 1 µM [8]: 53.7 mL/min/kg; CLint scaled at 1 h, 1 µM [9]: 65.5 mL/min/kg
Cc1cccc(C(=O)N2CCc3c(N4CCOC[C@H]4C)nc(-c4cccc5[nH]ccc45)nc3C2(C)C)c1	17 nM	
COc1ccc(C(=O)N2CCc3nc(-c4cccc5[nH]ccc45)nc(N4CCOC[C@H]4C)c3C2)cc1	> 1100 nM	
CC(=O)N1Cc2c(N3CCOC[C@H]3C)nc(-c3cccc4[nH]ccc34)nc2C1(C)C	2 nM	Activity [10]: <45%
C[C@@H]1COCCN1c1nc(-c2cccc3[nH]ccc23)nc2c1CN(C(=O)c1ccc3c(c1)OCCO3)C2(C)C	4 nM	IC50 [2]: 147 nM; IC50 [3]: 487 nM
CCOC(=O)N1CCc2c(N3CCOC[C@H]3C)nc(-c3cccc4[nH]ccc34)nc2C1(C)C	18 nM	
COc1ccc(C(=O)N2CCc3c(N4CCOC[C@H]4C)nc(-c4cccc5[nH]ccc45)nc3C2(C)C)cc1	9 nM	
C[C@@H]1COCCN1c1nc(-c2cccc3[nH]ccc23)nc2c1CCN(C(=O)c1cccc(Cl)c1)C2(C)C	43 nM	
COc1cccc(C(=O)N2CCc3c(N4CCOC[C@H]4C)nc(-c4cccc5[nH]ccc45)nc3C2(C)C)c1	5 nM	
C[C@@H]1COCCN1c1nc(-c2cccc3[nH]ccc23)nc2c1CN(C(=O)C1CC1)CC2	111 nM	
CC(C)C(=O)N1CCc2c(N3CCOC[C@H]3C)nc(-c3cccc4[nH]ccc34)nc2C12CCC2	29 nM	
COc1cc(C(=O)N2Cc3c(N4CCOC[C@H]4C)nc(-c4cccc5[nH]ccc45)nc3C2(C)C)cc(OC)c1OC	19 nM	
C[C@@H]1COCCN1c1nc(-c2cccc3[nH]ccc23)nc2c1CCN(C(=O)c1ccc(C(F)(F)F)cc1)C2(C)C	> 100 nM	
C[C@@H]1COCCN1c1nc(-c2cccc3[nH]ccc23)nc2c1CN(C(=O)C1CCC1)C2(C)C	7 nM	Activity [10]: <45%
CCC(=O)N1CCc2c(N3CCOC[C@H]3C)nc(-c3cccc4[nH]ccc34)nc2C1(C)C	9 nM	IC50 [2]: 779 nM; IC50 [3]: 2470 nM; half-life at 1 h, 1 µM [4]: 6.7 min; half-life at 1 h, 1 µM [5]: 14 min; microsomal CLint at 1 h, 1 µM [6]: 207 µL/min/mg; microsomal CLint at 1 h, 1 µM [7]: 98.8 µL/min/mg; CLint scaled at 1 h, 1 µM [8]: 195 mL/min/kg; CLint scaled at 1 h, 1 µM [9]: 178 mL/min/kg
CC(C)C(=O)N1CCc2c(N3CCOC[C@H]3C)nc(-c3cccc4[nH]ccc34)nc2C1(C)C	10 nM	IC50 [2]: 1120 nM; IC50 [3]: 4310 nM; half-life at 1 h, 1 µM [4]: 2.82 min; half-life at 1 h, 1 µM [5]: 10.9 min; microsomal CLint at 1 h, 1 µM [6]: 493 µL/min/mg; microsomal CLint at 1 h, 1 µM [7]: 129 µL/min/mg; CLint scaled at 1 h, 1 µM [8]: 466 mL/min/kg; CLint scaled at 1 h, 1 µM [9]: 232 mL/min/kg
COc1cccc(C(=O)N2CCc3c(N4CCOC[C@H]4C)nc(-c4cccc5[nH]ccc45)nc3C23CCC3)c1	> 100 nM	
C[C@@H]1COCCN1c1nc(-c2cccc3[nH]ccc23)nc2c1CCN(C(=O)C1CC1)C21CCC1	28 nM	
C[C@@H]1COCCN1c1nc(-c2cccc3[nH]ccc23)nc2c1CN(C(=O)C(C)(C)C)C2(C)C	12 nM	Activity [10]: <45%
C=CC(=O)N1CCc2c(N3CCOC[C@H]3C)nc(-c3cccc4[nH]ccc34)nc2C1(C)C	6 nM	
CCC(=O)N1CCc2nc(-c3cccc4[nH]ccc34)nc(N3CCOC[C@H]3C)c2C1	> 1100 nM	

Compound	IC50 [1]	also measured
CC(=O)N1CCc2c(N3CCOC[C@H]3C)nc(-c3cccc4[nH]ccc34)nc2C12CCC2	35 nM	
C[C@@H]1COCCN1c1nc(-c2cccc3[nH]ccc23)nc2c1CCN(C(=O)C1CCC1)C2(C)C	17 nM	
C[C@@H]1COCCN1c1nc(-c2cccc3[nH]ccc23)nc2c1CCN(C(=O)C1CC1)C2(C)C	8 nM	
C[C@@H]1COCCN1c1nc(-c2cccc3[nH]ccc23)nc2c1CCN(C(=O)Cc1ccccc1)C2(C)C	22 nM	
CC(C)C(=O)N1CCc2nc(-c3cccc4[nH]ccc34)nc(N3CCOC[C@H]3C)c2C1	> 100 nM	
COC(=O)N1CCc2c(N3CCOC[C@H]3C)nc(-c3cccc4[nH]ccc34)nc2C1(C)C	18 nM	
C[C@@H]1COCCN1c1nc(-c2cccc3[nH]ccc23)nc2c1CCN(C(=O)c1cccc(C(F)(F)F)c1)C2(C)C	72 nM	
COc1ccc(C(=O)N2CCc3c(nc(-c4cccc5[nH]ccc45)nc3N3CCOC[C@H]3C)C2)cc1	51 nM	
COc1ccc(C(=O)N2CCc3c(N4CCOC[C@H]4C)nc(-c4cccc5[nH]ccc45)nc3C23CCC3)cc1	> 100 nM	
C[C@@H]1COCCN1c1nc(-c2cccc3[nH]ccc23)nc2c1CCN(C(=O)Cc1cccs1)C2(C)C	9 nM	
COc1ccc(C(=O)N2Cc3c(N4CCOC[C@H]4C)nc(-c4cccc5[nH]ccc45)nc3C2(C)C)cc1OC	7 nM	
C[C@@H]1COCCN1c1nc(-c2cccc3[nH]ccc23)nc2c1CN(C(=O)c1ccc(OC(F)F)cc1)C2(C)C	5 nM	Activity [10]: <45%
CCC(=O)N1CCc2c(N3CCOC[C@H]3C)nc(-c3cccc4[nH]ccc34)nc2C12CCC2	23 nM	
C[C@@H]1COCCN1c1nc(-c2cccc3[nH]ccc23)nc2c1CN(C(=O)c1ccc(OC(F)(F)F)cc1)C2(C)C	42 nM	
CC(=O)N1CCc2nc(-c3cccc4[nH]ccc34)nc(N3CCOC[C@H]3C)c2C1	> 100 nM	
CC(C)C(=O)N1Cc2c(N3CCOC[C@H]3C)nc(-c3cccc4[nH]ccc34)nc2C1(C)C	8 nM	Activity [10]: <45%
CC(=O)N1CCc2c(nc(-c3cccc4[nH]ccc34)nc2N2CCOC[C@H]2C)C1	29 nM	
CCC(=O)N1CCc2c(nc(-c3cccc4[nH]ccc34)nc2N2CCOC[C@H]2C)C1	38 nM	
CC(C)C(=O)N1CCc2c(nc(-c3cccc4[nH]ccc34)nc2N2CCOC[C@H]2C)C1	15 nM	
C[C@@H]1COCCN1c1nc(-c2cccc3[nH]ccc23)nc2c1CCN(C(=O)C1CC1)C2	14 nM	
COc1cccc(C(=O)N2CCc3nc(-c4cccc5[nH]ccc45)nc(N4CCOC[C@H]4C)c3C2)c1	> 100 nM	
COc1cccc(C(=O)N2CCc3c(nc(-c4cccc5[nH]ccc45)nc3N3CCOC[C@H]3C)C2)c1	76 nM	
C[C@@H]1COCCN1c1nc(-c2cccc3[nH]ccc23)nc2c1CCN(C(=O)CN(C)C)C2(C)C	32 nM	
C[C@@H]1COCCN1c1nc(-c2cccc3[nH]ccc23)nc2c1CCN(C(=O)CN1CCN(C)CC1)C2(C)C	52 nM	
CCC(=O)N1Cc2c(N3CCOC[C@H]3C)nc(-c3cccc4[nH]ccc34)nc2C1(C)C	2 nM	Activity [10]: <45%
